Patent US20100068816A1, “Genetically engineered herbicide resistance for maintaining axenic cultures” (TransAlgae Ltd, priority 2008, published 2010)

How the values were obtained:
[1] = test system: wild type algae and the cyanobacteria; experiment: Effect of microtubule-inhibiting herbicides on wild type algae and cyanobacteria
Procedure: (§1) To quantify CO2 effects on plankton survivorship we incubate 81 L vessels of the algae Pavlova lutheri, Isochrysis CS-177, Nannochloropsis oculata CS-179, Nannochloropsis like CS-246, Nannochloropsis salina CS-190, Tetraselmis suecica, Tetraselmis chuii and Nannochloris sp or cyanobacteria Synechococcus PCC7002, Synechococcus WH-7803, Thermosynechococcus elongatus BP-1 with or without zooplankton (e.g. Arthemia sp.). The control and zooplankton treated containers are bubbled with air, 1%, 5% and 14% CO2 together with specific herbicides that are applied at the appropriate concentrations. Algal cell density and zooplankton counts are done on each treatment over a 10 day period. Throughout the experiment pH is maintained at 7.0-8.0, which allows phytoplankton growth.

[2] = test system: zooplankton (e.g. Arthemia sp.); experiment: Zooplankton survivorship under CO2 and herbicide treatment; format: in vivo; details: microtubule-inhibiting herbicides
Procedure: as §1

[3] = test system: Nannochloropsis cells transformed with pSI103-PDS; experiment: Cross resistance of Nannochloropsis cells transformed with pSI103-PDS; format: cell-based, Nannochloropsis oculata; details: Nannochloropsis transformants selected on ASW + 1 μM flurochloridone
Procedure: FIG. 3. Nannochloropsis cells were transformed with the pSI103-PDS construct (right panel) as well as control cells which were not transformed with DNA (left panel) plated on artificial sea water (ASW)+1 μM flurochloridone.
Nannochloropsis oculata CS179 cells were transformed with the PSI103-PDS construct using the ECM 830 electroporator (BTX Instrument Division, Harvard Apparatus, Inc., Holliston, Mass., USA) as described above. After transformation algae were plated on ASW+F/2 media (http://www.marine.csiro.au/microalgae/methods/) containing 10^−7M flurochloridone. After two weeks, algal colonies both from the transformation and the mock were replated on ASW+10^−6M flurochloridone plates. This allowed differentiation between false positives and true resistant clones (FIG. 3). This material was used in Example 4.

ppo transformant algae = experiment: Dose response of ppo transformants versus wild type alga; format: cell-based; details: 0.1 μM, 0.3 μM, 0.5 μM in 24 well plates
Procedure: A dose response curve is generated for the wild type alga and for the transformants. The wild types and the transformant algae are plated in their medium in 24 well plates with increasing concentrations of 0.1 μM, 0.3 μM, 0.5 μM butafenacil or flumioxazin. Algae are plated without the herbicide as a control. […] The most resistant colonies are chosen for further analysis.

[4] = test system: Synechococcus PCC7002 and Synechococcus WH7803; experiment: Mixed culture of ppo transformed algae and cyanobacteria contaminants, with and without herbicide; format: cell-based; details: mixed culture 10:1 transformant:cyanobacteria, one week liquid culture
Procedure: To address the question of contaminants, the transformed algae are mixed with cyanobacteria such as Synechococcus PCC7002 and Synechococcus WH7803, which are known to overtake ponds. The transformant and the cyanobacteria are cultured alone and in mixed cultures with and without butafenacil or flumioxazin. The mixed culture is plated in a ratio of 10:1 transformant: cyanobacteria respectively. The cells are allowed to grow for one week in liquid culture, with daily removal of aliquots. These aliquots are counted under the microscope and the ratio of contaminants vs. algae is calculated.

wild type culture = experiment: Slow released herbicide embedded in photobioreactor lining: wild type culture; format: cell-based; details: herbicide on inner side of photobioreactor, final concentration 10^−5 to 10^−7M if fully released
From the text: (§2) A hydrophobic herbicide/biocide such as flurochloridone or fluridone and/or butafenacil flumioxazin is/are applied using a volatile organic solvent such as xylene on the inner side of the polyethylene algae photobioreactor or pond liner, such that if it were fully released into the subsequent growth medium the concentration would reach a final concentration of 10^−5 to 10^−7M. Transgenically resistant algae or cyanobacteria versus wild-type are inoculated in the treated photobioreactors after the solvent has evaporated. In commercial production, the herbicides can be added during production of the polyethyelene.
(§3) Culture aliquots are removed daily and cell densities of wild types and the transformed algae or cyanobacteria are compared.

[5] = test system: resistant pds transformed algae; experiment: Slow released herbicide embedded in photobioreactor lining: resistant transformed algae; format: cell-based; details: herbicide on inner side of photobioreactor, final concentration 10^−5 to 10^−7M if fully released
From the text: as §2, §3

wild-type algae = experiment: Butafenacil dose response on wild type algae and cyanobacteria (FIG. 11); format: cell-based; details: 10^−6M or 10^−7M
Procedure: FIG. 11 A Chemical structure of butafenacil. B. Butafenacil dose response on wild type algae and cyanobacteria. Strains were cultured at OD648=0.1 in 24 well plate and butafencil was applied at concentrations of 10^−5,6,7M. After a week OD648 of the cultures was measured.
Cells are allowed to generate to visible colonies. After incubation for a week the most resistant colonies are chosen. To ascertain gene transformation PCR analysis is preformed on wild type and butafenacil or flumioxazin resistant colonies.

[6] = test system: Chlamydomonas pds transformants; experiment: Contamination test: Chlamydomonas pds transformant alone and in mixed culture, with and without flurochloridone; format: cell-based, Chlamydomonas reinhardtii; details: flurochloridone addition; liquid medium, one week, daily counts under the microscope; mixed culture 10:1
From the text: (§4) FIGS. 8A and B: Contamination test of Chlamydomonas pds transformant II5 versus the cyanobacterium Synechococcus PCC 7942. Chlamydomonas transformants and the cyanobacterium Synechococcus PCC7942 were inoculated alone and in mixed culture in a ratio of 10:1 with and without flurochloridone. Aliquots were removed daily and counted under the microscope. 8A represents the Chlamydomonas pds transformants counts and 8B represents the cyanobacterium Synechococcus PCC7942 counts.
(§5) To address the question of contaminants, the Chlamydomonas pds transformants were mixed with the cyanobacterium Synechococcus PCC7942, which is known to overtake ponds. A Chlamydomonas pds transformant and the cyanobacterium Synechococcus PCC7942 were inoculated alone and in mixed cultures with and without flurochloridone. The mixed culture was inoculated in a ratio of 10:1 Chlamydomonas pds transformants: Synechococcus PCC7942 wild type, respectively. The cells were allowed to grow for one week in liquid medium, with daily removal of aliquots. Contaminants versus target Chlamydomonas-cells were counted under the microscope (FIG. 8).

Synechococcus PCC7942 = experiment: Contamination test: Synechococcus PCC7942 alone and in mixed culture, with and without flurochloridone; format: cell-based; details: flurochloridone addition; liquid medium, one week, daily counts under the microscope; mixed culture 10:1
From the text: as §4, §5

Hydrilla verticillata = details: cited from earlier work

Compound | effect on wild type algae and cyanobacteria [1] | effect on zooplankton [2] | other results
CCCCN(CC)c1c([N+](=O)[O-])cc(C(F)(F)F)cc1[N+](=O)[O-] [benefin] | do not harm | killed | –
C=C(C)CN(CC)c1c([N+](=O)[O-])cc(C(F)(F)F)cc1[N+](=O)[O-] [ethalfluralin] | do not harm | killed | –
CNc1cnn(-c2cccc(C(F)(F)F)c2)c(=O)c1Cl [norflurazon] | – | – | cross resistance of the flurochloridone resistant material [3]: cross resistant
CC(C)N(Cc1ccccc1)C(=O)C(C)(C)C [tebutam] | do not harm | killed | –
O=C(Nc1ccc(F)cc1)c1cccc(Oc2cccc(C(F)(F)F)c2)n1 [picolinafen] | – | – | cross resistance of the flurochloridone resistant material [3]: cross resistant
C=CCOC(=O)C(C)(C)OC(=O)c1cc(-n2c(=O)cc(C(F)(F)F)n(C)c2=O)ccc1Cl [butafenacil] | – | – | growth of transformants bearing the resistance gene in dose response (ppo transformant algae): ability to grow at higher concentrations than the wild type; contaminants in mixed cultures containing the herbicide [4]: decreasing numbers of contaminants; growth of the wild type culture (wild type culture): completely inhibited; growth of the resistant pds transformed algae [5]: unaffected; wild-type algae growth (wild-type algae): inhibit
C#CC(C)(C)NC(=O)c1cc(Cl)cc(Cl)c1 [propyzamide] | do not harm | killed | –
CSC(=O)c1c(C(F)F)nc(C(F)(F)F)c(C(=O)SC)c1CC(C)C [dithiopyr] | do not harm | killed | –
CCOP(=S)(NC(C)CC)Oc1cc(C)ccc1[N+](=O)[O-] (stereo not shown) [butamiphos] | do not harm | killed | –
C#CCN1C(=O)COc2cc(F)c(N3C(=O)C4=C(CCCC4)C3=O)cc21 [flumioxazin] | – | – | growth of transformants bearing the resistance gene in dose response (ppo transformant algae): ability to grow at higher concentrations than the wild type; contaminants in mixed cultures containing the herbicide [4]: decreasing numbers of contaminants; growth of the wild type culture (wild type culture): completely inhibited; growth of the resistant pds transformed algae [5]: unaffected; wild-type algae growth (wild-type algae): inhibit
CCC(CC)Nc1c([N+](=O)[O-])cc(C)c(C)c1[N+](=O)[O-] [pendimethalin] | do not harm | killed | –
COC(=O)c1c(Cl)c(Cl)c(C(=O)OC)c(Cl)c1Cl [chlorthal-dimethyl] | do not harm | killed | –
O=C1C(Cl)C(CCl)CN1c1cccc(C(F)(F)F)c1 (stereo not shown) [flurochloridone] | – | – | growth of the resistant pds Chlamydomonas cells [6]: unaffected; growth of Synechococcus PCC7942 cells (Synechococcus PCC7942): completely inhibited; growth of the wild type culture (wild type culture): completely inhibited; growth of the resistant pds transformed algae [5]: unaffected
CCN(CC)c1c([N+](=O)[O-])cc(C(F)(F)F)c(N)c1[N+](=O)[O-] [dinitramine] | do not harm | killed | –
COC(=O)c1c(C(F)F)nc(C(F)(F)F)c(C2=NCCS2)c1CC(C)C [thiazopyr] | do not harm | killed | –
CCCN(CCC)c1c([N+](=O)[O-])cc(C(F)(F)F)cc1[N+](=O)[O-] [trifluralin] | do not harm | killed | –
CCC(C)Nc1c([N+](=O)[O-])cc(C(C)(C)C)cc1[N+](=O)[O-] (stereo not shown) [butralin] | do not harm | killed | –
COP(=S)(NC(C)C)Oc1ccc(C)cc1[N+](=O)[O-] (stereo not shown) [amiprophos-methyl] | do not harm | killed | –
fluridone | – | – | cross resistance of the flurochloridone resistant material [3]: cross resistant; biomass accumulation, of the content in untreated plants (Hydrilla verticillata; fluridone resistant biotypes): up to 72%; β-carotene accumulation, of the content in untreated plants (Hydrilla verticillata; fluridone resistant biotypes): ≤ 77%; biomass accumulation, of the levels found in untreated plants (Hydrilla verticillata; susceptible population): 10%; β-carotene accumulation, of the levels found in untreated plants (Hydrilla verticillata; susceptible population): 10%; growth of the wild type culture (wild type culture): completely inhibited; growth of the resistant pds transformed algae [5]: unaffected
